In patent US20240180881A1, “METHODS FOR DECREASING RESISTANCE TO CHEMOTHERAPY” (National Institute of Immunology, priority 2022, published 2024):
Counter-ions that a name gives are not always drawn.

Biological target: T1, BLM-RAD54 interaction (BLM F2 and N-RAD54 F1) (Homo sapiens, UniProt Q92698)
T1 construct: expressed in transfected cells; host or cells: HEK293T
T1 sequence (Q92698 1-212): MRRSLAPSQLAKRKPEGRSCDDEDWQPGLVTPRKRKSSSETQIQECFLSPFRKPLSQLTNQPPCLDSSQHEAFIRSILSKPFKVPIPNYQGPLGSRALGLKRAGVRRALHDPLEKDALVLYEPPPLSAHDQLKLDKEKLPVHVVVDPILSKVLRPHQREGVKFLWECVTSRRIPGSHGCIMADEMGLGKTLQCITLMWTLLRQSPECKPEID
Assay: Renilla luciferase-based protein complementation assay (PCA)
Type: cell-based
Conditions: disruption of BLM F2 / N-RAD54 F1 interaction, HEK293T cells, 1 nM to 100 μM; read-out: EC50
Description: Specifically, N-RAD54-F1, C-RAD54-F1, BLM-F1 and BLM-F2 were transfected in HEK293T. Forty-eight hours post-transfection, Renilla luciferase-based PCA were carried out with the indicated combination of the expressed proteins. The experiment was repeated three times. Mean±S.D.
Using the Renilla luciferase-based protein complementation assay described earlier, 1280 FDA/EMA approved small molecules present in Prestwick chemical library were screened for their ability to disrupt BLM-RAD54 interaction. Each of the small molecules was incubated with HEK293T cells expressing BLM-F2 and N-RAD54-F1. Compared to cells expressing only BLM-F2 and N-RAD54-F1, the decrease in Renilla luciferase intensity in presence of each small molecule was monitored. Percentage disruption of the interaction between BLM F2 and N-RAD54 F1 was plotted in form of heatmap. The disruption of the BLM-RAD54 interaction was determined by a decrease in the Renilla luciferase activity as compared to control untreated cells.
The percentage disruption of the interaction between BLM F2 and N-RAD54 F1 was plotted as a non-linear regression line. The data was from three independent experiments.
Renilla Luciferase (Rlu) based Protein complementation assay was carried out as described in (Stefan et al., 2007). For preliminary screening of the Prestwick Chemical Library (containing 1280 FDA/EMA approved small molecules), HEK293T cells were seeded in the 6-well plates a day prior to the transfection. Next day the cells were transfected by 2 μg each of pcDNA3.1 N-RAD54 F1, pcDNA3.1 C-RAD54 F1, pcDNA3.1 BLM F1, pcDNA3.1 BLM F2 plasmids (alone or in different combinations) using Lipofectamine 2000 (according to the manufacturer's protocol). 36 hours post-transfection, approximately […] cells were seeded in a 96-well plate and incubated at 37° C. for 2 hour with or without 10 μM of the 1280 small molecules present in the library. 10 μM of Coenleterazine h was added into each well and Rluc activity was monitored for the first 10 seconds in Varioskan Microplate Reader (Thermo Fisher Scientific). The validation screen was performed with 17 small molecules at 100 μM, 10 μM, 1 μM, 100 nM, 10 nM and 1 nM concentrations. The percentage reduction in the protein-protein interaction was then calculated as compared to the control wells (without any small molecule).

| SMILES | EC50 [nM] |
| --- | --- |
| NC(=O)NC1NC(=O)NC1=O (stereo not drawn) [C2, Allantoin] | 17.9 ± 1.82 |
| CN(C)C(=N)N=C(N)N [C4, Metformin hydrochloride] | 3.01 ± 0.812 |
| COc1ccc(CC2c3cc(OC)c(OC)cc3CC[N+]2(C)CCC(=O)OCCCCCOC(=O)CC[N+]2(C)CCc3cc(OC)c(OC)cc3C2Cc2ccc(OC)c(OC)c2)cc1OC (stereo not drawn) [C5, Atracurum besylate] | 5.38 ± 2.17 |

Continued by falling EC50, values first:

| EC50 [nM] | SMILES |
| --- | --- |
| 22.3 ± 1.98 | Nc1nc2nn[nH]c2c(=O)[nH]1 [C1, Azaguanine-8] |
| 20.5 ± 2.61 | Cc1ncc([N+](=O)[O-])n1CCO [C8, Metronidazole] |
| 6.26 ± 2 | C[C@]12C=CC(=O)C=C1CC[C@@H]1[C@@H]2C(=O)C[C@@]2(C)[C@H]1CC[C@]2(O)C(=O)CO [C6, Prednisone] |
